# Data taken from US6949522B2, “β-2′- or 3′-halonucleosides” (Pharmasset, Inc., priority 2001, dated 2005).
# Legend:
# [1] = test system: HBV; details: read-out: inhibition of HBV EC50; cited from earlier work
# [2] = biological target: T1, adenosine deaminase (EC 3.5.4.4) (Bos taurus, UniProt P56658); assay: in vitro; details: bovine, pH 7.4
# T1 sequence (P56658 1-363): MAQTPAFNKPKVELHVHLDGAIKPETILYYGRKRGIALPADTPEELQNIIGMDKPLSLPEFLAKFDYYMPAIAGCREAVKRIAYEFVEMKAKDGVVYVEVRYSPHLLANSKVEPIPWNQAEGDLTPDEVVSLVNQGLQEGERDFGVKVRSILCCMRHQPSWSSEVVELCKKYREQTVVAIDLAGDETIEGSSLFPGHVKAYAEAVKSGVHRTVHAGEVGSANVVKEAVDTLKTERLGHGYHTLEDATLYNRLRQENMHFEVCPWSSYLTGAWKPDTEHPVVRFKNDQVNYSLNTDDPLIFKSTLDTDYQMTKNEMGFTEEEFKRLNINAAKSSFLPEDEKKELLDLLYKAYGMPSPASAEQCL
# Description: Assays were performed at 25° C. in phosphate buffer solution (pH 7.4) with substrate concentrations in the range of 15-100 μM and with 0.15 unit of adenosine deaminase (EC.3.5.4.4. from calf intestinal mucosa). The assays were monitored with a UV spectrometer at 265 nm. Initially, the qualitative assays were performed with D-β-2′-F-4′-S-d4A 24 (200 μM) in the presence of 0.24 unit of adenosine deaminase for 120 minutes to determine whether it is a substrate of this enzyme. The concentration (ct) of each substrate at a certain time (t) was calculated from the absorbance (At) at that time (t), where it was assumed that the total change of absorbance (A0−A∞) was directly related to the disappearance of the substrate.^35 Initial hydrolysis rates for each substrate concentration were measured manually through graphical curve fitting of the concentration versus time data for reaction of each substrate. From Lineweaver-Burke plot of these initial rates, Vmax (maximum velocity) and KM (Michaelis constant) were obtained for each substrate and kcat was also calculated with 0.15 unit of the enzyme (M.W. 33,000) in 2 mL of buffer solution.
# [3] = biological target: T2, adenosine deaminase (EC.3.5.4.4. from calf intestinal mucosa) (Bos taurus, UniProt P56658); set-up: adenosine deaminase (EC.3.5.4.4. from calf intestinal mucosa); from tissue; host or cells: calf intestinal mucosa; details: literature value (ref. 28); cited from earlier work
# T2 sequence (P56658 1-363): T1 sequence (P56658 1-363)
structure (smiles),measurement,setting,value
"Nc1nc(=O)n([C@@H]2CS[C@H](CO)O2)cc1F [(−)-FTC, β-2′,3′-dideoxy-5-fluoro-3′-thiacytidine]",EC50,[1],240 nM
"Nc1ncnc2c1ncn2[C@@H]1O[C@H](CO)[C@@H](O)[C@H]1O [Adenosine, reference compound]",half-life at 20 μM,[2],30 s
Nc1ncnc2c1ncn2[C@@H]1O[C@H](CO)C=C1F [D-2′-F-d4A],Km,[3],23 µM
